Paper PMC8017969, “Redox regulation of NADP-malate dehydrogenase is vital for land plants under fluctuating light environment” (Proceedings of the National Academy of Sciences of the …, 2021)

How the values were obtained:
MDHΔC = biological target: T1, MDHΔC (Arabidopsis thaliana, UniProt Q8H1E2); experiment: NADPH oxidation monitored at […] nm, Michaelis-Menten fit; assay type: biochemical; conditions: reduced enzyme (pretreated with Trx-f1 and DTT); 0-200 μM oxaloacetate, 100 μM NADPH, 0.01 μM MDH, pH 7.5, 50 mM NaCl, 25 °C
T1 construct: gene At5g58330; mature enzyme from Ser54 plus start Met, C-terminal extension from Cys430 to C terminus deleted, pET-23c, expressed in E. coli
T1 sequence (Q8H1E2 54-429): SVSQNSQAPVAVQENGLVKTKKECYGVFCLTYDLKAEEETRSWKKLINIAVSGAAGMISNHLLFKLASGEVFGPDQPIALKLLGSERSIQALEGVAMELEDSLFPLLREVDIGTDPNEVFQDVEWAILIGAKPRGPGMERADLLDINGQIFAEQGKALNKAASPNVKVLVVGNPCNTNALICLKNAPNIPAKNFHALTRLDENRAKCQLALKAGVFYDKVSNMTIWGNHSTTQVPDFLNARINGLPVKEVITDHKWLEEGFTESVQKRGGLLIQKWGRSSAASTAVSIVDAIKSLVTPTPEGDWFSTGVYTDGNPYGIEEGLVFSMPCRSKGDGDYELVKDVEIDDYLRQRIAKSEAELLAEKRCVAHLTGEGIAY

[1] = biological target: T2, MDHWT (chloroplast NADP-malate dehydrogenase) (Arabidopsis thaliana, UniProt Q8H1E2); experiment: as above; assay type: biochemical; conditions: reduced enzyme (pretreated with Trx-f1 and DTT); 0-200 μM oxaloacetate, 100 μM NADPH, 0.01 μM MDH, pH 7.5, 50 mM NaCl, 25 °C
T2 construct: gene At5g58330; mature enzyme from Ser54 plus start Met (transit peptide removed), pET-23c, expressed in E. coli, purified with added size exclusion step
T2 sequence (Q8H1E2 54-443): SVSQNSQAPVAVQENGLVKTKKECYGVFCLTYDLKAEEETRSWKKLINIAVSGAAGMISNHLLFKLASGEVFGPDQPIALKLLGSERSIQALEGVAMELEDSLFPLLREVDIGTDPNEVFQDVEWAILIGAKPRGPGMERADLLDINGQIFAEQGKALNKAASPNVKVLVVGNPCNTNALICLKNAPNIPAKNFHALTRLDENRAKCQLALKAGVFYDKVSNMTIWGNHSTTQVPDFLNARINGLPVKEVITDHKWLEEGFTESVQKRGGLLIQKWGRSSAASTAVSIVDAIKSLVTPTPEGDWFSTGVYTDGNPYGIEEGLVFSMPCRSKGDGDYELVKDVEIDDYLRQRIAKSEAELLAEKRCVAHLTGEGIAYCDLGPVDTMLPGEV

Structure (SMILES): O=C(O)CC(=O)C(=O)O [oxaloacetate]
- NADPH oxidation monitored at 340 nm, Michaelis-Menten fit (MDHΔC): Activities of recombinant MDHWT and MDHΔC
- NADPH oxidation monitored at 340 nm, Michaelis-Menten fit [1]: Activities of recombinant MDHWT and MDHΔC
